Source: patent EP3895702B1, “DERIVATIVE OF VALPROIC ACID AND DICHLOROACETATE USED FOR THE TREATMENT OF CANCER” (Lietuvos sveikatos mokslu universitetas, priority 2020, dated 2021)

Tests used:
[1] = tested on: glioblastoma U87 MG tumors; assay: Invasion of glioblastoma tumor graft into chicken embryo chorioallantoic membrane (CAM) mesenchyme; type: in vivo; conditions: control 90.9%
Experimental: Synergistic effect of VPA and DCA on glioblastoma tumor (GB) graft on chicken embryo chorioallantoic membrane (CAM). […] Invasion into the CAM mesenchyme was detected in 50% of cases with 10 mM NaDCA treatment of GB (A-b and B). […] The incidence of invasion into the CAM mesenchyme was 9.1% in the group treated with the combination of 4 mM VPA and 5 mM DCA (A-c and B).
A - morphological changes of the chorioallantoic membrane in the groups studied: a - tumor formed from glioblastoma U87 MG cells; GB injured the integrity of the chorionic epithelium (ChE) (indicated by arrows) and invaded the CAM mesenchyme; b - GB treated with 10 mM NaDCA; no invasion of the CAM mesenchyme was detected, ChE injury already started (location marked with an arrow); c - GB treated with a combination of 4 mM VPA and 5 mM DCA; GB formed on the CAM surface, ChE integrity damaged (location marked with an arrow), CAM thinned (scale - 200 µm). […] C - fluorescence biomicroscopy of angiogenesis on the 5th day after tumor transplantation on CAM: a - untreated GB tumors, b - GB-4 mM VPA-5 mM DCA group; VPA-DCA treated tumor fluorescence is weaker compared to the control group tumor; a and b-a short arrow indicates the blood vessels attracted by the tumor, long arrow indicates a tumor (scale - 1 mm).

[2] = aqueous solution; cited from earlier work

Molecule: O=C([O-])C(Cl)Cl.[Na+] [NaDCA, Sodium dichloroacetate]
- Invasion into the CAM mesenchyme (cases) ([1]; 10 mM NaDCA, n = 14): 50%

Molecule: CCCC(CCC)C(=O)O [valproic acid, 2-propyl-pentanoic acid]
- ionization equilibrium constant Kr [2]: 2.2·10^-5

Molecule: Magnesium dichloroacetate [MgDCA]
- Invasion rate ([1]; 5 mM MgDCA, n = 7): 14.3%
